Measurements reported in patent US5882881A, “Inhibition of cyst formation by cytoskeletal specific drugs” (priority 1998, dated 1999).
Several values for one entry are separate records, joined by “and”; a condition that tells them apart may be missing. Identical values can stand only once. Entries after “also recorded” stand apart in the source; their conditions may differ.

Assays:
Murine CPK Cells [1] = experiment: In vitro cyst formation and cyst size in suspension culture of murine CPK cells; format: cell-based, mouse; conditions: for Cyst Size: mean ± SD of twenty cysts, concentrations as in Table II, control 71 ± 22; for cyst formation (in words): murine CPK cells, 24 h suspension culture, ouabain 0.5 mM, also 1 mM, b155 taxol 25 μM, colchicine 10 μM, vinblastine 1 μM, cytochalasins 10 μM, model species not given
Method: At 10, 21 and 28 days after birth, mice having congenital polycystic kidney disease (CPK) and their phenotypically normal littermates were sacrificed by cervical dislocation. Kidneys were harvested aseptically and washed with DMEM/F12 (Sigma Chemical Co., St. Louis, Mo.) in a 1:1 mix. Each decapsulated kidney was chopped into cubes (1 mm) and incubated in 5 ml of collagenase solution composed of 1 mg/ml collagenase type IV (Worthington Biochemical Corporation, Freehold, N.J.), 1 mg/ml egg white trypsin inhibitor (Worthington) in 1:1 DMEM/F12.
The top 12 mls, which contained both single cells and aggregates of up to 10 cells, as assessed by inverted phase-ontrast microscopy, were placed in 2 ml aliquots in the wells of plastic culture plates (Corning, N.Y.) precoated with 1% agarose in DMEM:F12 (2 ml in each well of a 6-well plate; 1 ml in each well of a 24-well plate). Cell samples were digested with further incubation for 10 minutes in 0.05% trypsin and 0.53 mM EDTA (Gibco, BRL Gaithesburg, Md.) at 37° C. All cultures were plated at a final density of 1-3×10^4 cell, per well. For growth studies of monolayer cells, identical preparations were grown on the plastic surface of the culture plates. Both the monolayers and the cell suspensions were incubated at 37° C. in a moisture saturated incubator in 5% CO2 and air.
(§1) I used the in vitro cyst formation system of the present invention to analyze compounds that affect the process of cyst formation. To determine the therapeutic effectiveness of an agent, cyst-forming cells are suspended in a medium to which the agent has been added. These cells are then cultured on a solid phase without formation of a layer of cells on the surface, such as in the assay system described in Example 1. The extent to which the cells actually form cysts can be detected and compared to the extent of cyst formation expected if no agent were added. If the amount of cyst formation is lower than expected, then the agent is a good candidate for therapeutic intervention of cystic diseases.
(§2) The effects of various metabolic inhibitors on cyst formation were studied in cultures derived from day 21 postnatal CPK mice. […] Taxol (25 μM), a microtubule specific inhibitor, was from Calbiochem (La Jolla, Calif.). All other chemicals were obtained from Sigma Chemical Co. Cytosine arabinoside was added at the final concentration of 20 μg/ml to inhibit DNA synthesis; α-amanitin at 100 ng/ml to inhibit RNA synthesis; cycloheximide at 40 μg/ml to inhibit protein synthesis; amiloride at 1 mM to inhibit the renal epithelial Na^+ -H^+ exchange; ouabain at 0.5 mM to inhibit Na^+ -K^+ -ATPase; brefeldin-A at 10 μg/ml to inhibit transport of surface proteins; griseofulvin at 350 μM to inhibit microtubule function; colchicine at 10 μM to inhibit microtubule polymerization; and cytochalasin-B and cytochalasin-D at 10 μM to depolymerize actin filaments.
(§3) In the presence of these metabolic inhibitors in vitro, cyst formation was noted to be either present or absent; if present, the diameters of 20 cysts from a 0.2 ml aliquot were measured. In the same samples, ^3 H-dThd incorporation was also measured as described above. […] After each wash, cell clusters were collected by centrifuging at 200×g for 1 minute and the supernatant discarded. Washed cell clusters were resuspended in the original volume of growth medium without inhibitors, placed in agarose coated wells and incubated at 37° C. in a moisture saturated incubator in 5% CO2 and air.
(§4) In this table, the mean cyst size is reported as ±SD with a measurement of twenty cysts. The ^3 H-dThd incorporation is reported as ±SD using measurements of three wells. The * indicates […] versus control. […] The entries listed as "NA" in the table indicate data that is not available.

homozygous cpk mice = experiment: Survival of cpk mice on weekly griseofulvin (Example 9); format: in vivo, mouse
Method: Although the mechanism of its inhibitory activity is not presently understood, this antifungal agent is known to have a colchicine-like effect on mitosis.
Nine homozygous cpk mice, raised and identified as in Example 6 were treated with 25 μl of 24 mg/ml griseofulvin in DMSO through intraperitoneal injection beginning 10-12 days after birth. After the first treatment, the mice were administered with the same treatment once every week thereafter.

Murine CPK Cells [2] = experiment: In vitro cyst formation and cyst size in suspension culture of murine CPK cells; format: cell-based, mouse; conditions: day 21, 24 h, final concentration per Table II (cytosine arabinoside 20 μg/ml, α-amanitin 100 ng/ml, cycloheximide 49 μg/ml, ouabain 1 mM, amiloride 1 mM, brefeldin-A 10 μg/ml, griseofulvin 350 μM, colchicine 10 μM, vinblastine 1 μM, nocodazole 30 μM, taxol 25 μM, cytochalasins 10 μM)
Murine CPK Cells [3] = experiment: 3H-thymidine incorporation (DNA synthesis) in CPK cell suspension culture; format: cell-based, mouse; conditions: ± SD, three wells; concentrations as in Table II; control 100 ± 11; 1440 min
Method: Growth studies were performed on kidney cells derived from day 10, 21 and 28 postnatal CPK mice and their normal littermates. Immediately after cells were placed in suspension or monolayer culture, 3 μCi of ^3 H-thymidine (^3 H-dThd, specific activity 45 Ci/mmol, Amersham, Ill.) was placed in each well of the culture plate. DNA synthesis was assessed by incorporation of ^3 H-dThd over the 24 hours of culture, and trichloroacetic acid-insoluble. radioactivity was expressed as cpm/μg protein. Protein was assayed with the BCA reagent as described by the manufacturer (Pierce, Rockford, Ill.). At 24 hours of culture, an aliquot (0.2 ml) of the suspension was removed and the number of cysts counted using an inverted microscope. The number of cysts was expressed as a ratio factored for the total number of cells in the suspension at 24 hours of culture. Cyst diameter was measured at 100× using an eyepiece micrometer.
as §2, §3, §4

human ADPKD cells = experiment: In vitro cyst formation in human ADPKD cells; format: cell-based
Description: I have substituted human ADPKD cells for the murine CPK cells of Example 1 and produced similar results. Other cyst-forming cells are believed to also form suitable results with only minor deviations from the conditions set forth in Example 1.
Cell suspensions were separated from debris by sedimentation at unit gravity and decantation. After washing once with DMEM/F12 medium, cells were suspended in DMEM/F12 supplemented with 1.2 gm/l sodium bicarbonate, 1× insulin, transferrin and selenium (Sigma # 11184), 1% lipids supplement (Sigma # L4646) and 1× antibiotic/antimycotic (Sigma # A7292) at a density of 5×10^4 cells per ml. Two mls of the cell suspension were aliquoted into each well of a six-well plastic cell culture plates that had been precoated with 2 mls of 1% low melting point agarose in DMEM/F12 and incubated at 37° C. in a humidified atmosphere of 5% CO2 in air.
as §1

Murine CPK Cells [4] = experiment: Cell viability, trypan blue exclusion, CPK suspension culture; conditions: 1.0 mM ouabain
Method: as §2, with “[…];” for “ouabain at 0.5 mM to inhibit Na^+ -K^+ -ATPase;”

neonatal CPK kidneys = conditions: triiodothyronine pharmacological doses; ouabain 0.2 mM; cited from earlier work
Na^+ K^+ -ATPase = conditions: triiodothyronine; ouabain 0.2 mM; cited from earlier work
[5] = test system: normal and polycystic human kidney epithelial cells; conditions: embedded in type 1 collagen; cited from earlier work

## COC1=CC(=O)C[C@@H](C)[C@]12Oc1c(Cl)c(OC)cc(OC)c1C2=O [Griseofulvin]
Murine CPK Cells [1]
  Cyst Size: 0 μm
  cyst formation (in words): inhibits the formation of cysts
Homozygous cpk mice; 25 μl of 24 mg/ml griseofulvin in DMSO i.p. weekly from 10-12 days, untreated controls 33.5±6.3 days, preliminary
  minimum average lifespan: at least 49±15.8 days
Homozygous cpk mice; remaining three of nine mice, weekly griseofulvin i.p.
  age of mice still alive: 78 days of age and 54 days of age and 63 days of age
Homozygous cpk mice; six of nine mice, weekly griseofulvin i.p.
  age at death of individual mice: 31 days of age and 34 days of age and 35 days of age and 41 days of age and 45 days of age and 60 days of age
Murine CPK Cells [2]
  Cyst Formation (+/-): -

## C[C@@H]1O[C@@H](O[C@H]2C[C@@H](O)[C@]3(CO)[C@H]4[C@H](O)C[C@]5(C)[C@@H](C6=CC(=O)OC6)CC[C@]5(O)[C@@H]4CC[C@]3(O)C2)[C@H](O)[C@H](O)[C@H]1O [Ouabain]
Murine CPK Cells [1]
  Cyst Size: 0 μm
  cyst formation (in words): not to inhibit cyst formation in these cells; also recorded: cyst inhibiting activity was observed; also recorded: did not prevent the formation of CPK cysts
Murine CPK Cells [3]
  ^3 H-dThd Incorporation: 104 ± 9 % control
Human ADPKD cells; human ADPKD cells, cytosine arabinoside 20 μg/ml, α-amanitin 100 ng/ml, cycloheximide 40 μg/ml, amiloride 1 mM, ouabain 0.5 mM, taxol 25 μM, colchicine 10 μM, vinblastine 1 μM, cytochalasins 10 μM
  cyst formation (in words): potent inhibitor of cyst formation; also recorded: completely block cyst formation; also recorded: cyst formation can be blocked
Human ADPKD cells; human model
  time to lumen appearance after removing the inhibitor: twenty-four
Human ADPKD cells; human model, inhibitor removed
  reversibility of inhibition of cyst formation: reversible
Murine CPK Cells [4]
  cell death / reduction of cell viability (in words): extensive cell death; also recorded: large scale reduction of cell viability
Murine CPK Cells [2]
  Cyst Formation (+/-): -
Neonatal CPK kidneys
  proximal tubular cysts maintained / effect abolished: abolished
Na^+ K^+ -ATPase
  renal Na^+ K^+ -ATPase activity (in words): decrease

## C=C[C@@]1(C)CC(=O)[C@]2(O)[C@@]3(C)[C@@H](O)CCC(C)(C)[C@@H]3[C@H](O)[C@H](OC(C)=O)[C@@]2(C)O1 [forskolin]
[5]
  induction of cysts: can be induced to produce cysts

## N[C@@H](Cc1cc(I)c(Oc2ccc(O)c(I)c2)c(I)c1)C(=O)O [triiodothyronine]
Neonatal CPK kidneys
  proximal tubular cysts maintained / effect abolished: can be maintained
Na^+ K^+ -ATPase
  renal Na^+ K^+ -ATPase activity (in words): increase

## epidermal growth factor: stimulates cyst formation of kidney epithelial cells in collagen
[5]
  induction of cysts: can be induced to produce cysts
